The source of these data is ChEMBL document CHEMBL5696439 (Cancer Res, 2010).

Active and inactive are the calls of the source. The rule behind the calls is not given here.

For orientation: inhibition means the relative decrease from the control value, in per cent. The term IC50 denotes the midpoint of a concentration-inhibition curve.

In experiment [1] the test system is MDA-MB-361. Description: Antitumor activity against human MDA-MB-361 cells assessed as block the accumulation of HIF-2alpha in low oxygen at 0.3 micromol/L incubated for 24 hrs by immunoblot analysis. Type of experiment: functional, cell-based. The conditions noted are these: dose 0.3 µmol/L.
The target in experiment [2] is Hepatocyte growth factor receptor (Homo sapiens) (UniProt P08581). Description: Inhibition of recombinant human His-tagged MET (956-1390 residues) expressed in baculovirus expression system at 2 uM using Tyr 06 as substrate measured after 1 hr by Z'-LYTE assay relative to control.
Chain of Hepatocyte growth factor receptor (Homo sapiens) (P08581 whole entry, the tested form may be a part): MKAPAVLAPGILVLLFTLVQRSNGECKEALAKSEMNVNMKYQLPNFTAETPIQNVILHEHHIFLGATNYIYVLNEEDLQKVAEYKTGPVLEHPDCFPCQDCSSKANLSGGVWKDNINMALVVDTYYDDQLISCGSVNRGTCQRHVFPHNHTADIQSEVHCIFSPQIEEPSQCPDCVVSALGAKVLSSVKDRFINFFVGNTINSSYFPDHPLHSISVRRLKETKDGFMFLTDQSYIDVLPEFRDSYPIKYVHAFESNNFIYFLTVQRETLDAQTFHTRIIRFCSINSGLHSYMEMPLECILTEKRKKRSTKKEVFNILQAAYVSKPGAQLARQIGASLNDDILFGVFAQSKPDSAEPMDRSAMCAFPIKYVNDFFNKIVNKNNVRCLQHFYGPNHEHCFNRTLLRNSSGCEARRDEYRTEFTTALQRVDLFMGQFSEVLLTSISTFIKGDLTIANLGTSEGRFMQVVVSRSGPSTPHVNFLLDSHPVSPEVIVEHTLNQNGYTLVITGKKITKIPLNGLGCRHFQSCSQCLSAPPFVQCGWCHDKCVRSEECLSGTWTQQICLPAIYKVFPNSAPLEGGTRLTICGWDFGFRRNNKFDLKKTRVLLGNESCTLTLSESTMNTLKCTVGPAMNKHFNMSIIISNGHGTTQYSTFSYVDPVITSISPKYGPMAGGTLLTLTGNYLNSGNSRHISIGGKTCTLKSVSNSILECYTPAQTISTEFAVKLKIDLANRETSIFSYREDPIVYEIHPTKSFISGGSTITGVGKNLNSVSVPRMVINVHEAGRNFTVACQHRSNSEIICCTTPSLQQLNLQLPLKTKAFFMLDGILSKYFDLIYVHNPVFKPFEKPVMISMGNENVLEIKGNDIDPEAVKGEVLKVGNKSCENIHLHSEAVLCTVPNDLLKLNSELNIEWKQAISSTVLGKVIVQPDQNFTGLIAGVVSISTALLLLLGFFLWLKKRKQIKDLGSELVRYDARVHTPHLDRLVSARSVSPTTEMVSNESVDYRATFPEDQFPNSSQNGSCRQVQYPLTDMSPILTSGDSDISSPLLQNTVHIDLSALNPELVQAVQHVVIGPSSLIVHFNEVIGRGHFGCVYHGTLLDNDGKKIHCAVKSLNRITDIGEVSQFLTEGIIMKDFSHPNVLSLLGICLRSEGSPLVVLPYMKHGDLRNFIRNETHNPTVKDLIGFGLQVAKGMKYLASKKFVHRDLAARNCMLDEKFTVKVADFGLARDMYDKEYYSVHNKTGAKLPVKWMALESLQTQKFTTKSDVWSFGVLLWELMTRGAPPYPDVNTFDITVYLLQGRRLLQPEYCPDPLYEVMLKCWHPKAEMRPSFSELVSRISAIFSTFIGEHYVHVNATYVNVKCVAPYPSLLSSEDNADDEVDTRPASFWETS
The target in experiment [3] is Dual specificity protein kinase CLK1 (Homo sapiens) (UniProt P49759). Description: Inhibition of recombinant human GST-tagged CLK1 (129-484 residues) expressed in E. coli at 2 uM using Ser/Thr 09 as substrate measured after 1 hr by Z'-LYTE assay relative to control.
Chain of Dual specificity protein kinase CLK1 (Homo sapiens) (P49759 whole entry, looked up, the tested form may be a part): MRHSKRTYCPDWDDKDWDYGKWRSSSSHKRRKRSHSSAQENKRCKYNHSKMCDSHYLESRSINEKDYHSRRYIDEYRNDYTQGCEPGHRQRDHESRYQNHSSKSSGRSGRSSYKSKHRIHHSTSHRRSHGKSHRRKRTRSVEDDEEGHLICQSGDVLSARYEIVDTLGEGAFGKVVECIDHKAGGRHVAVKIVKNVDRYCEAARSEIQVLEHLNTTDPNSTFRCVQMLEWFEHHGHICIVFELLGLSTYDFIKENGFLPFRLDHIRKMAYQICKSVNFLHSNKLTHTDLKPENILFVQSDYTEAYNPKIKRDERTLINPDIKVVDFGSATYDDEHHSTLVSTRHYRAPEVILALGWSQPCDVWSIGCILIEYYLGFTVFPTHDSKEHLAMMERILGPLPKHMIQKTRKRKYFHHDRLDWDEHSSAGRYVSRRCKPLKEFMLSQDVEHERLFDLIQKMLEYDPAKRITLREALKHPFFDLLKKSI
For experiment [4], the target named is Serine/threonine-protein kinase Chk1 (Homo sapiens) (UniProt O14757). Description: Inhibition of recombinant human full-length His-tagged CHEK1 expressed in baculovirus expression system at 2 uM using Ser/Thr 19 as substrate measured after 1 hr by Z'-LYTE assay relative to control.
Experiment [5] concerns the target Ephrin type-B receptor 3 (Homo sapiens) (UniProt P54753). Description: Inhibition of recombinant human GST-tagged EPHB3 (623-907 residues) expressed in insect cells at 2 uM using Tyr 02 as substrate measured after 1 hr by Z'-LYTE assay relative to control. The conditions noted are these: Insect cell.
For experiment [6], the target named is Mitogen-activated protein kinase 1 (Homo sapiens) (UniProt P28482). Description: Inhibition of recombinant human full length GST-tagged MAPK1 expressed in E.coli at 2 uM using Ser/Thr 03 as substrate measured after 1 hr by Z'-LYTE assay relative to control.
Chain of Mitogen-activated protein kinase 1 (Homo sapiens) (P28482 whole entry): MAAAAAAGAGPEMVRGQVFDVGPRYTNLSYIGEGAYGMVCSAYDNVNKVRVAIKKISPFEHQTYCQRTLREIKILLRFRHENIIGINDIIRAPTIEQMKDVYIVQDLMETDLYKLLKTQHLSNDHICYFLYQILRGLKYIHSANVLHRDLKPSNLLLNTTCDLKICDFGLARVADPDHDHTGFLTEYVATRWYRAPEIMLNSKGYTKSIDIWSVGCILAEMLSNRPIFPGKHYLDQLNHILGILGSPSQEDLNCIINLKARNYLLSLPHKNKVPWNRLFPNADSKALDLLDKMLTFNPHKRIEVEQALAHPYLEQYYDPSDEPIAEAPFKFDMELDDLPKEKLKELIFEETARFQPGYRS
Experiment [7] concerns the target G protein-coupled receptor kinase 3 (Homo sapiens) (UniProt P35626). Description: Inhibition of recombinant human full-length GST-tagged ADRBK2 expressed in insect cells at 2 uM using Ser/Thr 16 as substrate measured after 1 hr by Z'-LYTE assay relative to control. The conditions noted are these: Insect cell.
Experiment [8] has as its target Mitogen-activated protein kinase kinase kinase kinase 5 (Homo sapiens) (UniProt Q9Y4K4). Description: Inhibition of recombinant human full length GST-tagged MAP4K5 expressed in insect cells at 2 uM using Ser/Thr 07 as substrate measured after 1 hr by Z'-LYTE assay relative to control. The conditions noted are these: Insect cell.
For experiment [9], the system named is MDA-MB-361. Description: Induction of apoptosis in human MDA-MB-361 cells assessed as decrease in AKT phosphorylation at S473 level at 0.05 to 5 micromol/L incubated for 48 hrs by Western blot analysis. As to conditions: dose 0.05-5 µmol/L. The experiment is classed as functional, cell-based. In general terms: In western blotting, separated proteins are transferred to a membrane and probed.

In experiment [10] the target is Tyrosine-protein kinase Lyn (Homo sapiens) (UniProt P07948). Description: Inhibition of recombinant human full length GST-tagged LYN A expressed in baculovirus expression system at 2 uM using Tyr 02 as substrate measured after 1 hr by Z'-LYTE assay relative to control.
Chain of Tyrosine-protein kinase Lyn (Homo sapiens) (P07948 2-512 limits assumed): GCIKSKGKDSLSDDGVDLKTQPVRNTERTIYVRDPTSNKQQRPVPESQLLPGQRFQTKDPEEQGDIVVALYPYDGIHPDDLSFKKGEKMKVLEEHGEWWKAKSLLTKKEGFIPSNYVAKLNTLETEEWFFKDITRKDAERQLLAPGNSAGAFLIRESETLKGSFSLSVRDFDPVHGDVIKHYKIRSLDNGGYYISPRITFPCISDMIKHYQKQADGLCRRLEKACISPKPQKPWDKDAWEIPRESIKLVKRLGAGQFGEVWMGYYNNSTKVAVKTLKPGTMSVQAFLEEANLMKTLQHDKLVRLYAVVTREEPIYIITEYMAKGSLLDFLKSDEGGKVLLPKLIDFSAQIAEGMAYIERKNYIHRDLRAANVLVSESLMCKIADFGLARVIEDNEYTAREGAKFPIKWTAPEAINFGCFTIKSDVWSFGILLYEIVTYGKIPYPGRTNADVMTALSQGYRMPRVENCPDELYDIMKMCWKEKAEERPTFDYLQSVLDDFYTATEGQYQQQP
The subject of experiment [11] is MDA-MB-361. Description: Antiproliferative activity against human MDA-MB-361 cells assessed as cell growth inhibition incubated for 2 days by MTS assay. Type of experiment: functional, cell-based. The conditions noted are these: MDA-MB-361, 48 h.
Experiment [12] deals with Calcium/calmodulin-dependent protein kinase type IV (Homo sapiens) (UniProt Q16566). Description: Inhibition of recombinant human full-length GST-tagged CAMK4 expressed in E. coli at 2 uM using Ser/Thr 13 as substrate measured after 1 hr by Z'-LYTE assay relative to control.
Chain of Calcium/calmodulin-dependent protein kinase type IV (Homo sapiens) (Q16566 whole entry): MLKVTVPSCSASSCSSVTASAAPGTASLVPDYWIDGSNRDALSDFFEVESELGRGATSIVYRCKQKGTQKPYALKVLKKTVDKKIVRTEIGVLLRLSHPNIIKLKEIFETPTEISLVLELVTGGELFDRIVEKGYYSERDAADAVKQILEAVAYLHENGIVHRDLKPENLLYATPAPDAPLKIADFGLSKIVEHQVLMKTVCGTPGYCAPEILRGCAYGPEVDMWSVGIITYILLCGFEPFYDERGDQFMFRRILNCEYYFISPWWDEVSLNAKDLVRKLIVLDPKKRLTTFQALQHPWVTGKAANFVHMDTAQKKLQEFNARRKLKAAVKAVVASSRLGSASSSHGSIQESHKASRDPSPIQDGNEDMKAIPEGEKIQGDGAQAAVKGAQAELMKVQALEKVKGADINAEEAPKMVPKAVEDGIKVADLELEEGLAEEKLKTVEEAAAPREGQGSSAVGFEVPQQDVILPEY

Chain of G protein-coupled receptor kinase 3 (Homo sapiens) (P35626 whole entry): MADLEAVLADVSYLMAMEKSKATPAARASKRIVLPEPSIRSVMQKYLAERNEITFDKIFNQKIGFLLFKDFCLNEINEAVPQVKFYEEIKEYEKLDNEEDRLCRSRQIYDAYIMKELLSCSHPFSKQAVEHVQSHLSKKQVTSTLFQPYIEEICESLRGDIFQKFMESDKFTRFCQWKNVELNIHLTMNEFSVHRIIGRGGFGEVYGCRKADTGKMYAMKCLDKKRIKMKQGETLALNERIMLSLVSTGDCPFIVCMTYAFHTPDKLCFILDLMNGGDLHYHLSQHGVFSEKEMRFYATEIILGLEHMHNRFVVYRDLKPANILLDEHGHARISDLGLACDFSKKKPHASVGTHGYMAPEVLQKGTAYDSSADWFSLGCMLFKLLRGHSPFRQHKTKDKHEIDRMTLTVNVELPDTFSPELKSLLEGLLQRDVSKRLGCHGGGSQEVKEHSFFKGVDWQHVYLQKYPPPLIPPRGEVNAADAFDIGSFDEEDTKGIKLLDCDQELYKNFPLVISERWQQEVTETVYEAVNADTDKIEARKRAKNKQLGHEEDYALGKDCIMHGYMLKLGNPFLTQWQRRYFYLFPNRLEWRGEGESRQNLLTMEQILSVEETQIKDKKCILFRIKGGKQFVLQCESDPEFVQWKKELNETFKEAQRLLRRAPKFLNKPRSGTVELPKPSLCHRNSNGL
Chain of Mitogen-activated protein kinase kinase kinase kinase 5 (Homo sapiens) (Q9Y4K4 whole entry, looked up): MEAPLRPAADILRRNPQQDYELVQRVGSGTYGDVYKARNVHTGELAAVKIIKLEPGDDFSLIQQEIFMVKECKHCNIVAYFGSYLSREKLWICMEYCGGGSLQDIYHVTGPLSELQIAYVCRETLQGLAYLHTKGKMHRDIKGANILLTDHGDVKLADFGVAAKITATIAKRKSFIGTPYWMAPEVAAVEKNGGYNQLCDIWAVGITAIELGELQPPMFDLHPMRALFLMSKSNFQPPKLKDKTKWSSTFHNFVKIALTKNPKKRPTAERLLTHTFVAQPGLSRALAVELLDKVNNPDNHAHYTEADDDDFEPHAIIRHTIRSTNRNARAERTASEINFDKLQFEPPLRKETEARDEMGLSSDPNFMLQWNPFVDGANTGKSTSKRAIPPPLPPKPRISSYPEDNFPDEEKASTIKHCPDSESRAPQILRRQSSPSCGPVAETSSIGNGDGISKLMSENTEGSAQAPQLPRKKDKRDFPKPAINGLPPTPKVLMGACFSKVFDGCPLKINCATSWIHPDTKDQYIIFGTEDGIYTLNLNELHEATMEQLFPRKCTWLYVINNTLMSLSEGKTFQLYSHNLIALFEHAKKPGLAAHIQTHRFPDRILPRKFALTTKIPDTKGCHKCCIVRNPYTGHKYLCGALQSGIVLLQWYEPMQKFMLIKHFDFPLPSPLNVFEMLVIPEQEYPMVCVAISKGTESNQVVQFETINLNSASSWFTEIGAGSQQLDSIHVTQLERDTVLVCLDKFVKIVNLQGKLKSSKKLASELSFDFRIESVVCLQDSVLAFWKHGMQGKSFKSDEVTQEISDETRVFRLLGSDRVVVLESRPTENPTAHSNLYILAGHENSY

As for `CNC(=O)Nc1ccc(-c2nc(N3CC4CCC(C3)O4)c3cnn(C4CCC5(CC4)OCCO5)c3n2)cc1`, the outcome in the experiment with MDA-MB-361 [1] and in the experiment with MDA-MB-361 [9] was Active. The inhibition is 2% in experiment [2]; -3% in experiment [3]; 9% in experiment [4]; 3% in experiment [5]; 0% in experiment [6]; -3% in experiment [7]. Also, the inhibition in experiment [8] was 19%; in experiment [10], 7%; in experiment [12], -1%. In addition, in the experiment with MDA-MB-361 [11], the IC50 was 0.05 µM.
